In patent US20140378454A1, “NOVEL METHODS” (XSPRAY MICROPARTICLES AB, priority 2012, published 2014):
Structures can show the parent of a compound that is named as a salt. Each block holds one molecule with its values, some of them ahead of it.

Columns and labels:
Format in all cases: physicochemical
[1] = Dissolution measurement assay (apparent solubility) in FaSSIF, pH 6.5; set-up: AUC/90 min / AUC/80 min: concentration or dose not given beside the values; conditions: for AUC/80 min: during 80 min dissolution
[2] = Dissolution measurement assay (apparent solubility) in FeSSIF, pH 5; conditions: for Conc (mg/L) 5 min: 5 minutes dissolution; for Conc (mg/L) 90 min: 90 minutes dissolution
Procedure: The method consists of adding the wished amount of powder of hybrid nanoparticles into a glass vial and then pouring in it the appropriate medium (typically FaSSIF, FeSSIF or SGF). The medium was prepared in accordance with the manufacturer's instructions. The amount of powder added depends on the wished “total PKI concentration”. […] For other experiments, the drug load was first estimated by HPLC and the amount of powder to obtain the drug concentration was calculated.
Typically, the powder was added in a 8 mL glass bottle and 7 mL of solution was added (typically FaSSIF, FeSSIF or SGF). The glass bottle was put on a shaker (approximately 1 rotation per minute) for dissolution. Samples of 500 μl where taken after different times, and subsequently centrifuged at approximately 15000 g for 3 minutes. The resulting supernatant was then analyzed by HPLC (C18 column Eclipse, 4.6 mm×15 cm, 1 mL/min, detection at 254-400 nM. Generally samples were taken after 5, 30 and 90 min and eventually 150 min.
A number of experiments were carried out, wherein nilotinib base or nilotinib HCl represented the protein kinase inhibitor. The experiments were carried out by measuring concentration of solubilized PKI (mg/L) after 5, 30 and 90 minutes dissolution in a solution at about pH 6.5, namely FaSSIF (Fasted State Simulated Intestinal Fluid). […] Samples of the solution were taken at various time intervals and the amount of protein kinase inhibitor was measured by the dissolution measurement assay described above.

[3] = Dissolution rate measurement in sink conditions, flow through cell system, FaSSIF, 37° C.; conditions: sink condition in FaSSIF; for Initial Dissolution Rate: initial slope of accumulated % solubilized vs time, 0 to 10 minutes
Procedure: The temperature of the apparatus was set to 37° C. The amount of powder added into the cell depends on drug load of the powder: The exact amount of powder was calculated from results obtained from drug load analysis of the powders.
Typically, 3.5 to 7 mg PKI was added into the flow through cell and a flow rate between 8 and 16 ml medium/min (preferably about 8 ml medium/min) was pumped through the powder. One ml samples of the medium passing through the cell were collected at predetermined times. […] Samples were taken after 0, 0.5, 1, 1.5, 2, 3, 4, 5, 6, 7, 8, 9, 10, 15, 20, 25, 30, 35 and 40 min from the moment the medium comes out from the flow through cell. The accumulated % solubilized of the amount of active substance added into the flow through cell was calculated and plotted against time (min). The initial slope (“initial dissolution rate”) of the graph was estimated, as measured during 0 to 10 minutes, and taken as the dissolution rate of the material in sink condition at 37° C. in the given dissolution medium.

[4] = concentration of nilotinib HCl, FaSSIF solution (pH 6.5), 5 minutes dissolution, HCl
[5] = concentration of nilotinib HCl, FaSSIF solution (pH 6.5), 30 minutes dissolution, HCl
[6] = concentration of nilotinib HCl, FaSSIF solution (pH 6.5), 90 minutes dissolution, HCl
[7] = nilotinib HCl, FaSSIF solution (pH 6.5), 30 minutes dissolution, HCl
[8] = nilotinib HCl, FaSSIF solution (pH 6.5), Area Under the Curve during 90 minutes dissolution, HCl
[9] = concentration of erlotinib HCl, FeSSIF solution (pH 5)
[10] = concentration of nilotinib HCl, FeSSIF solution (pH 5)

Structure (SMILES): Cc1ccc(Nc2nccc(N(C)c3ccc4c(C)n(C)nc4c3)n2)cc1S(N)(=O)=O [Exp 84, pazopanib]
Conc (mg/L) 5 min ([1]; 5 min, pH 6.5): 46.2 mg/L
% solubilized 30 min. ([1]; 30 min, pH 6.5): 2.4%
Conc (mg/L) 30 min ([1]; 30 min, pH 6.5): 24.4 mg/L
Conc (mg/L) 90 min ([1]; 90 min, pH 6.5): 15.0 mg/L

Structure (SMILES): Cc1cn(-c2cc(NC(=O)c3ccc(C)c(Nc4nccc(-c5cccnc5)n4)c3)cc(C(F)(F)F)c2)cn1 [Exp 2, Nilotinib HCl]
Conc (mg/L) 5 min [1, 4]: 0.2 mg/L
Conc (mg/L) 30 min [1, 5]: 0.2 mg/L
Conc (mg/L) 90 min [1, 6]: 0.2 mg/L
% solubilized 30 min. [1, 7]: 0.04%
AUC/90 min Mg/min/L [1, 8]: 23.5 Mg/min/L

Structure (SMILES): Cc1cn(-c2cc(NC(=O)c3ccc(C)c(Nc4nccc(-c5cccnc5)n4)c3)cc(C(F)(F)F)c2)cn1 [Exp 3, Nilotinib HCl]
Conc (mg/L) 5 min [1, 4]: 0.2 mg/L
Conc (mg/L) 30 min [1, 5]: 0.3 mg/L
Conc (mg/L) 90 min [1, 6]: 0.2 mg/L
% solubilized 30 min. [1, 7]: 0.03%
AUC/90 min Mg/min/L [1, 8]: 21.8 Mg/min/L

Structure (SMILES): Cc1cn(-c2cc(NC(=O)c3ccc(C)c(Nc4nccc(-c5cccnc5)n4)c3)cc(C(F)(F)F)c2)cn1 [Exp 4, Nilotinib Base]
Conc (mg/L) 5 min ([1]; concentration of nilotinib HCl, FaSSIF solution (pH 6.5), 5 minutes dissolution): 0.6 mg/L
Conc (mg/L) 30 min ([1]; concentration of nilotinib HCl, FaSSIF solution (pH 6.5), 30 minutes dissolution): 0.5 mg/L
Conc (mg/L) 90 min ([1]; concentration of nilotinib HCl, FaSSIF solution (pH 6.5), 90 minutes dissolution): 0.2 mg/L
% solubilized 30 min. ([1]; nilotinib HCl, FaSSIF solution (pH 6.5), 30 minutes dissolution): 0.50%
AUC/90 min Mg/min/L ([1]; nilotinib HCl, FaSSIF solution (pH 6.5), Area Under the Curve during 90 minutes dissolution): 36.5 Mg/min/L

Structure (SMILES): CNC(=O)c1cc(Oc2ccc(NC(=O)Nc3ccc(Cl)c(C(F)(F)F)c3)cc2)ccn1 [Exp 560, sorafenib tosylate]
Initial Dissolution Rate [3]: 0.47

Structure (SMILES): CNC(=O)c1cc(Oc2ccc(NC(=O)Nc3ccc(Cl)c(C(F)(F)F)c3)cc2)ccn1.Cc1ccc(S(=O)(=O)O)cc1 [Experiment 560]
Accumulated % of solubilized of remaining active substance at a given time (min) ([3]; 0 min): 0.2%
Accumulated % of solubilized of remaining active substance at a given time (min) ([3]; 0.5 min): 0.4%
Accumulated % of solubilized of remaining active substance at a given time (min) ([3]; 1 min): 0.7%
Accumulated % of solubilized of remaining active substance at a given time (min) ([3]; 1.5 min): 1.0%
Accumulated % of solubilized of remaining active substance at a given time (min) ([3]; 2 min): 1.3%
Accumulated % of solubilized of remaining active substance at a given time (min) ([3]; 3 min): 1.8%
Accumulated % of solubilized of remaining active substance at a given time (min) ([3]; 4 min): 2.2%
Accumulated % of solubilized of remaining active substance at a given time (min) ([3]; 5 min): 2.6%
Accumulated % of solubilized of remaining active substance at a given time (min) ([3]; 6 min): 3.0%
Accumulated % of solubilized of remaining active substance at a given time (min) ([3]; 7 min): 3.4%
Accumulated % of solubilized of remaining active substance at a given time (min) ([3]; 8 min): 3.8%
Accumulated % of solubilized of remaining active substance at a given time (min) ([3]; 9 min): 4.2%
Accumulated % of solubilized of remaining active substance at a given time (min) ([3]; 10 min): 4.6%
Accumulated % of solubilized of remaining active substance at a given time (min) ([3]; 20 min): 8.8%
Accumulated % of solubilized of remaining active substance at a given time (min) ([3]; 30 min): 12.6%
Accumulated % of solubilized of remaining active substance at a given time (min) ([3]; 40 min): 16.4%

Structure (SMILES): Cc1nc(Nc2ncc(C(=O)Nc3c(C)cccc3Cl)s2)cc(N2CCN(CCO)CC2)n1 [Exp 138, dasatinib]
Conc (mg/L) 3 min ([1]; 3 min, pH 6.5): 34.5 mg/L
Conc (mg/L) 40 min ([1]; 40 min, pH 6.5): 59.7 mg/L
Conc (mg/L) 80 min ([1]; 80 min, pH 6.5): 63.5 mg/L
% solubilized 40 min. ([1]; dasatinib, 40 min dissolution, FaSSIF pH 6.5): 6.0%
AUC/80 min ([1]; dasatinib, FaSSIF pH 6.5): 2396 Mg/min/L

Structure (SMILES): Cc1cn(-c2cc(NC(=O)c3ccc(C)c(Nc4nccc(-c5cccnc5)n4)c3)cc(C(F)(F)F)c2)cn1 [Exp 41, Nilotinib HCl]
Conc (mg/L) 5 min [2, 10]: 0.6 mg/L
Conc (mg/L) 30 min ([2]; concentration of nilotinib HCl, FeSSIF solution (pH 5), 30 minutes dissolution): 0.9 mg/L
Conc (mg/L) 90 min [2, 10]: 0.9 mg/L
% solubilized 30 min. ([2]; nilotinib HCl, FeSSIF solution (pH 5), 30 minutes dissolution): 0.18%
AUC/90 min Mg/min/L ([2]; nilotinib HCl, FeSSIF solution (pH 5), Area Under the Curve during 90 minutes dissolution): 74.3 Mg/min/L

Structure (SMILES): Cc1cn(-c2cc(NC(=O)c3ccc(C)c(Nc4nccc(-c5cccnc5)n4)c3)cc(C(F)(F)F)c2)cn1 [Exp 1, Nilotinib HCl]
Conc (mg/L) 5 min [1, 4]: 0.1 mg/L
Conc (mg/L) 30 min [1, 5]: 0.2 mg/L
Conc (mg/L) 90 min [1, 6]: 0.1 mg/L
% solubilized 30 min. [1, 7]: 0.20%
AUC/90 min Mg/min/L [1, 8]: 13.0 Mg/min/L

Structure (SMILES): CNC(=O)c1ccccc1Sc1ccc2c(/C=C/c3ccccn3)n[nH]c2c1 [Exp 157, axitinib]
Conc (mg/L) 3 min ([1]; 3 min, pH 6.5): 0.6 mg/L
Conc (mg/L) 40 min ([1]; 40 min, pH 6.5): 0.6 mg/L
Conc (mg/L) 80 min ([1]; 80 min, pH 6.5): 0.6 mg/L
% solubilized 40 min. ([1]; axitinib, 40 min dissolution, FaSSIF pH 6.5): 0.1%
AUC/80 min ([1]; axitinib, FaSSIF pH 6.5): 47 Mg/min/L

Structure (SMILES): CNC(=O)c1cc(Oc2ccc(NC(=O)Nc3ccc(Cl)c(C(F)(F)F)c3)cc2)ccn1 [Exp 142, sorafenib tosylate]
Conc (mg/L) 3 min ([1]; 3 min, pH 6.5): 59.1 mg/L
% solubilized 40 min. ([1]; 40 min, pH 6.5): 34.4%
Conc (mg/L) 40 min ([1]; 40 min, pH 6.5): 343.5 mg/L
Conc (mg/L) 80 min ([1]; 80 min, pH 6.5): 311.5 mg/L

Structure (SMILES): C[C@@H](Oc1cc(-c2cnn(C3CCNCC3)c2)cnc1N)c1c(Cl)ccc(F)c1Cl [Exp 570, crizotinib]
Initial Dissolution Rate [3]: 6.6

Structure (SMILES): C[C@@H](Oc1cc(-c2cnn(C3CCNCC3)c2)cnc1N)c1c(Cl)ccc(F)c1Cl [Exp 150, crizotinib]
Conc (mg/L) 3 min ([1]; 3 min, pH 6.5): 89.3 mg/L
% solubilized 40 min. ([1]; 40 min, pH 6.5): 22.7%
Conc (mg/L) 40 min ([1]; 40 min, pH 6.5): 226.5 mg/L
Conc (mg/L) 80 min ([1]; 80 min, pH 6.5): 295.6 mg/L

Structure (SMILES): Cc1cn(-c2cc(NC(=O)c3ccc(C)c(Nc4nccc(-c5cccnc5)n4)c3)cc(C(F)(F)F)c2)cn1 [Exp 500, nilotinib HCl]
Initial Dissolution Rate [3]: 0.27

Further lines, results first:

Conc (mg/L) 5 min [2, 9]: 156.8 mg/L
Conc (mg/L) 30 min ([2]; concentration of erlotinib HCl, FeSSIF solution (pH 5), 30 minutes dissolution): 189.9 mg/L
Conc (mg/L) 90 min [2, 9]: 196 mg/L
% solubilized 30 min. ([2]; erlotinib HCl, FeSSIF pH 5, 30 min dissolution): 19.0%
AUC/90 min Mg/min/L ([2]; erlotinib HCl, FeSSIF pH 5, during 90 min dissolution): 16303 Mg/min/L
Structure (SMILES): C#Cc1cccc(Nc2ncnc3cc(OCCOC)c(OCCOC)cc23)c1 [Exp 69, Erlotinib HCl]

Conc (mg/L) 5 min ([1]; concentration of lapatinib after 5 min dissolution, FaSSIF pH 6.5): 2.9 mg/L
Conc (mg/L) 30 min ([1]; concentration of lapatinib after 30 min dissolution, FaSSIF pH 6.5): 6.0 mg/L
Conc (mg/L) 90 min ([1]; concentration of lapatinib after 90 min dissolution, FaSSIF pH 6.5): 6.5 mg/L
% solubilized 30 min. ([1]; lapatinib, 30 min dissolution, FaSSIF pH 6.5): 0.3%
AUC/90 min ([1]; lapatinib, during 90 min dissolution, FaSSIF pH 6.5): 494 Mg/min/L
Structure (SMILES): CS(=O)(=O)CCNCc1ccc(-c2ccc3ncnc(Nc4ccc(OCc5cccc(F)c5)c(Cl)c4)c3c2)o1 [Exp 110, lapatinib base]

Conc (mg/L) 5 min ([1]; 5 min, pH 6.5): 28.9 mg/L
Conc (mg/L) 30 min ([1]; 30 min, pH 6.5): 6.25 mg/L
Conc (mg/L) 90 min ([1]; 90 min, pH 6.5): 4.6 mg/L
% solubilized 30 min. ([1]; erlotinib HCl, FaSSIF pH 6.5, 30 min dissolution): 0.6%
AUC/90 min Mg/min/L ([1]; erlotinib HCl, FaSSIF pH 6.5, during 90 min dissolution): 837 Mg/min/L
Structure (SMILES): C#Cc1cccc(Nc2ncnc3cc(OCCOC)c(OCCOC)cc23)c1 [Exp 58, erlotinib HCl]

Initial Dissolution Rate [3]: 2.2
Structure (SMILES): COc1cc2ncnc(Nc3ccc(F)c(Cl)c3)c2cc1OCCCN1CCOCC1 [Exp 540, gefitinib]

Initial Dissolution Rate [3]: 0.103
Structure (SMILES): CS(=O)(=O)CCNCc1ccc(-c2ccc3ncnc(Nc4ccc(OCc5cccc(F)c5)c(Cl)c4)c3c2)o1 [Exp 530, lapatinib ditosylate]

Conc (mg/L) 3 min ([1]; 3 min, pH 6.5): 0.3 mg/L
% solubilized 40 min. ([1]; 40 min, pH 6.5): 0.1%
Conc (mg/L) 40 min ([1]; 40 min, pH 6.5): 0.3 mg/L
Conc (mg/L) 80 min ([1]; 80 min, pH 6.5): 0.4 mg/L
Structure (SMILES): CCCS(=O)(=O)Nc1ccc(F)c(C(=O)c2c[nH]c3ncc(-c4ccc(Cl)cc4)cc23)c1F [Exp 164, vemurafenib]

Conc (mg/L) 3 min ([1]; concentration of gefitinib after 3 min dissolution, FaSSIF pH 6.5): 121.8 mg/L
Conc (mg/L) 40 min ([1]; concentration of gefitinib after 40 min dissolution, FaSSIF pH 6.5): 153.1 mg/L
Conc (mg/L) 80 min ([1]; concentration of gefitinib after 80 min dissolution, FaSSIF pH 6.5): 148.1 mg/L
% solubilized 40 min. ([1]; gefitinib, 40 min dissolution, FaSSIF pH 6.5): 15.3%
AUC/80 min ([1]; gefitinib, FaSSIF pH 6.5): 5967 Mg/min/L
Structure (SMILES): COc1cc2ncnc(Nc3ccc(F)c(Cl)c3)c2cc1OCCCN1CCOCC1 [Exp 131, gefitinib]

Initial Dissolution Rate [3]: 0.303
Structure (SMILES): C#Cc1cccc(Nc2ncnc3cc(OCCOC)c(OCCOC)cc23)c1 [Exp 510, erlotinib HCl]
